Values of other authors as cited in patent US20250228797A1, “SYNERGIC AND STABLE PHARMACEUTICAL COMPOSITION OF AN NSAID AND AN OPIOID ANALGESIC FOR PAIN AND INFLAMMATION” (LABORATORIOS SILANES, S.A. DE C.V., priority 2024, published 2025).

Tests used:
[1] = in vivo
[2] = test system: moderate to severe post-operatory pain; settings: intravenous or intramuscular

For `COc1cccc([C@@]2(O)CCCC[C@@H]2CN(C)C)c1` [tramadol, (1R,2R)-2-[(dimethylamino)methyl]-1-(3-methoxyphenyl)cyclohexan-1-ol], the “Incidence of serious adverse reactions” value [1] is given as “less than 1%”, the “Analgesic potency relative to nalbuphine” value [2] is given as “one-fifth” and the “Analgesic potency relative to pethidine (meperidine)” value [2] is given as “equivalent”.
